One assay deals with E. coli NHIJ JC-2. Put plainly: Minimum inhibitory concentration (MIC) by agar dilution method. Format: cell-based. The note with it: Escherichia coli. As for the experimental part: (§1) Minimum Inhibitory Concentration (MIC)
(§2) The minimum inhibitory concentration [MIC (unit: (μg/ml)] of the test compound was determined by an agar dilution method. More specifically, 0.25 ml of an aqueous solution of the test compound diluted stepwise was put into a Petri dish, which was then mixed with 9.75 ml of Muller-Hinton agar containing fildis enrichment [F-MH medium. fildis enrichment (5%)]). On thus-prepared mixed agar plate, a suspension of the test bacteria (about 10^6 CFU/ml) was spread, which was incubated at 37° C. overnight.

Another assay relates to H. influenzae NN400. The assay is described as above. Format: cell-based. To be noted: Haemophilus influenzae. How it is done: as §1, §2
Setting [1] is: NHIJJC2, strain E. coli NHIJ JC-2, medium F-MH, 10^6 CFU/ml, 37° C. overnight, read-out: MIC (μg/ml) 10^6 CFU/ml E. coli NHIJ JC-2.
The mark [2] stands for this setting: strain H. influenzae NN400, medium F-MH, 10^6 CFU/ml, 37° C. overnight, read-out: MIC (μg/ml) 10^6 CFU/ml H. influenzae NN400.
[3] abbreviates: NHIJJC2, read-out: MIC (μg/ml) 10^6 CFU/ml E. coli NHIJ JC-2.
Where [4] appears, read: NN400, read-out: MIC (μg/ml) 10^6 CFU/ml H. influenzae NN400.

SMILES strings stand for the structures. In brackets after ≈: the same amount, converted by molar mass. Where two headings read alike, the source gives them in different places.

As for `CC(Cc1cccnn1)SC1=C(C(=O)O)N2C(=O)[C@H]([C@@H](C)O)[C@H]2[C@H]1C` (single isomer, unassigned; diastereomer-2) [Working Example 17], the MIC with E. coli NHIJ JC-2 (setting [1]) and with H. influenzae NN400 (setting [2]) was 0.1 µg/mL (≈ 0.275 µM) throughout.

For the compound `C[C@@H](O)[C@H]1C(=O)N2C(C(=O)O)=C(SCCN=CN)C[C@H]12` [Imipenem, reference compound], the values for the MIC in the assay with E. coli NHIJ JC-2 (setting [1]) and with H. influenzae NN400 (setting [2]) were 0.1 µg/mL (≈ 0.334 µM) and 0.78 µg/mL (≈ 2.61 µM), respectively.

For the compound `C[C@@H](O)[C@H]1C(=O)N2C(C(=O)O)=C(SCCc3c[nH]nn3)[C@H](C)[C@H]12` [Working Example 2-3, Sodium (4R,5S,6S)-6-[(1R)-1-hydroxyethyl]-4-methyl-7-oxo-3-[2-(1,2,3-triazol-4-yl)ethylthio]-1-azabicyclo[3.2.0]hept-2-ene-carboxylate], the MIC in the assay with E. coli NHIJ JC-2 (setting [1]) was found to be 0.025 µg/mL; in the assay with H. influenzae NN400 (setting [2]), 0.1 µg/mL.

As for `C[C@@H](O)[C@H]1C(=O)N2C(C(=O)[O-])=C(SCCc3cc[nH]n3)[C@H](C)[C@H]12.[Na+]` [Working Example 3-3, Sodium (4R,5S,6S)-6-[(1R)-1-hydroxyethyl]-4-methyl-7-oxo-3-[2-(3-pyrazolyl)ethylthio]-1-azabicyclo[3.2.0]hept-2-ene-2-carboxylate], the MIC in the assay with E. coli NHIJ JC-2 (setting [3]) and in the assay on H. influenzae NN400 (setting [4]) was 0.1 µg/mL each time.

Regarding `C[C@@H](O)[C@H]1C(=O)N2C(C(=O)[O-])=C(SCCc3cn4ccccc4n3)[C@H](C)[C@H]12.[Na+]` [Working Example 18-2, Sodium (4R,5S,6S)-6-[(R)-1-hydroxyethyl]-3-[2-(imidazo[1,2-a]pyridin-2-yl)ethylthio]-4-methyl-7-oxo-1-azabicyclo[3.2.0]hept-2-ene-2-carboxylate], the values for the MIC in the assay with E. coli NHIJ JC-2 (setting [3]) and with H. influenzae NN400 (setting [4]) were 0.2 µg/mL and 0.1 µg/mL, respectively.

Consider `C[C@@H](O)[C@H]1C(=O)N2C(C(=O)O)=C(SCCc3cn4cc(N)ccc4n3)[C@H](C)[C@H]12` [Working Example 29-2, Sodium (4R,5S,6S)-3-[2-(6-aminoimidazo[1,2-a]pyridin-2-yl)ethylthio]-6-[(1R)-1-hydroxyethyl]-4-methyl-7-oxo-1-azabicyclo[3.2.0]hept-2-ene-carboxylate], for which the MIC with E. coli NHIJ JC-2 (setting [1]) worked out at 0.2 µg/mL; with H. influenzae NN400 (setting [2]), 0.05 µg/mL.

On to `C[C@@H](O)[C@H]1C(=O)N2C(C(=O)[O-])=C(SCCc3cn4cccnc4n3)[C@H](C)[C@H]12.[Na+]` [Working Example 32-2, Sodium (4R,5S,6S)-6-[(1R)-1-hydroxyethyl]-3-[2-(imidazo[1,2-a]pyrimidin-2-yl)ethylthio]-4-methyl-7-oxo-1-azabicyclo[3.2.0]hept-2-ene-2-carboxylate], for which the figures for the MIC in the assay on E. coli NHIJ JC-2 (setting [3]) and with H. influenzae NN400 (setting [4]) were 0.2 µg/mL and 0.05 µg/mL, respectively.

For the compound `C[C@@H](O)[C@H]1C(=O)N2C(C(=O)[O-])=C(SCCc3cn4c(NC(N)=O)cccc4n3)[C@H](C)[C@H]12.[Na+]` [Working Example 33-2, Sodium (4R,5S,6S)-6-[(1R)-1-hydroxyethyl]-4-methyl-7-oxo-3-[2-(5-ureidoimidazo[1,2-a]pyridin-2-yl)ethylthio]-1-azabicyclo[3.2.0]hept-2-ene-2-carboxylate], the MIC in the assay with E. coli NHIJ JC-2 (setting [3]) came out at 0.2 µg/mL; in the assay with H. influenzae NN400 (setting [4]), 0.1 µg/mL.
